Test results from patent US20230303540A1 (Merck Sharp & Dohme LLC, priority 2020, published 2023).

Molecular target: GST-tagged truncated human mutant G2019S LRRK2 (Homo sapiens, UniProt Q5S007, G2019S)
Experiment: LRRK2 G2019S Km ATP LanthaScreen assay
Format: biochemical
Details: 134 μM ATP (Km ATP), LRRKtide substrate, mean IC50 values; read-out: LRRK2 pIC50 (converted)
Procedure, shortened: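 LanthaScreen TR-FRET read with fluorescein-LRRKtide and 134 μM ATP (Km) in Tris pH 8.5/10 mM MgCl2 buffer. The enzyme was preincubated 15 min with compound at room temperature, and the reaction ran 90 min at ambient temperature. Stopped with EDTA plus Tb anti-phospho-LRRKtide antibody; the 520/495 nm ratio gave a 4-parameter logistic IC50, mean of several runs.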

Structure (SMILES)	IC50 [nM]
OC1CCN(c2cc3nc(Nc4cnn(CC(F)F)c4Cl)ncc3cc2Cl)CC1 [Ex-1.21, 1-(6-chloro-2-{[5-chloro-1-(2,2-difluoroethyl)-1H-pyrazol-4-yl]amino}quinazolin-7-yl)piperidin-4-ol]	6.09
Cc1cc2cnc(Nc3cnn(C4CC4(F)F)c3C)nc2cc1N1CCN(C2(C)COCC2O)CC1 (single isomer, unassigned) [Ex-5.3, (3S,4S) or (3R,4R) 4-(4-(2-((1-(2,2-(R) or (S)difluorocyclopropyl)-5-methyl-1H-pyrazol-4-yl)amino)-6-methylquinazolin-7-yl)piperazin-1-yl)-4-methyltetrahydrofuran-3-ol]	0.31
Cn1cc(Nc2ncc3cc(Cl)c(N4CCN(C5(C)COC5)CC4)cc3n2)c(C(F)(F)F)n1 [Ex-4.21, 6-chloro-7-[4-(3-methyloxetan-3-yl)piperazin-1-yl]-N-[1-methyl-3-(trifluoromethyl)-1H-pyrazol-4-yl]quinazolin-2-amine]	36.8
CC1(Cn2ncc(Nc3ncc4cc(Cl)c(N5CCN(C6(C)COC6)CC5)cc4n3)c2Cl)COC1 [Ex-4.52, 6-chloro-N-{5-chloro-1-[(3-methyloxetan-3-yl)methyl]-1H-pyrazol-4-yl}-7-[4-(3-methyloxetan-3-yl)piperazin-1-yl]quinazolin-2-amine]	1.89
Cc1c(Nc2ncc3cc(Cl)c(N4CCN(C5(C)COC(C)(C)C5)CC4)cc3n2)cnn1C1CC1 (single isomer, unassigned) [Ex-12.2]	0.721
CN(C)c1cc2nc(Nc3cnn(C4CC4)c3)ncc2cc1Cl [Ex-3.29, 6-chloro-N-2-(1-cyclopropyl-1H-pyrazol-4-yl)-N-7-,N-7-dimethylquinazoline-2,7-diamine]	8.79
Cc1c(Nc2ncc3ccc(N4C(=O)OC[C@@H]4C)cc3n2)cnn1C1C[C@@H](C)O[C@@H](C)C1 (single isomer, unassigned) [Ex-7.6]	1.57
O[C@@H]1COCC12CCN(c1cc3nc(Nc4cnn(C5CC5)c4Cl)ncc3cc1Cl)CC2 [Ex-3.3]	17.2
Cc1cc2cnc(Nc3cnn(C)c3C)nc2cc1N1CCN(C2COCC2O)CC1 (single isomer, unassigned) [Ex-2.3, (3S,4S or 3R,4R)-4-(4-{2-[(1,5-dimethyl-1H-pyrazol-4-yl)amino]-6-methylquinazolin-7-yl}piperazin-1-yl)oxolan-3-ol]	1.77
CC1(N2CCN(c3cc4nc(Nc5cnn(C6CCC6)c5Cl)ncc4cc3Cl)CC2)COC1 [Ex-4.50, 6-chloro-N-(5-chloro-1-cyclobutyl-1H-pyrazol-4-yl)-7-[4-(3-methyloxetan-3-yl)piperazin-1-yl]quinazolin-2-amine]	4.61
OC1CN(C2CCN(c3cc4nc(Nc5cnn(CC(F)F)c5Cl)ncc4cc3Cl)CC2)C1 [Ex-1.22, 1-[1-(6-chloro-2-{[5-chloro-1-(2,2-difluoroethyl)-1H-pyrazol-4-yl]amino}quinazolin-7-yl)piperidin-4-yl]azetidin-3-ol]	6.94
Cc1c(Nc2ncc3cc(Cl)c(N4CCN(C5(C)COCC5O)CC4)cc3n2)cnn1C1CC1(F)F (single isomer, unassigned) [Ex-6.38, (3S,4S) or (3R,4R) 4-[4-(6-chloro-2-{[1-(2,2-(R) or (S)difluorocyclopropyl)-5-methyl-1H-pyrazol-4-yl]amino}quinazolin-7-yl)piperazin-1-yl]-4-methyloxolan-3-ol]	0.835
Cn1ncc(Nc2ncc3cc(Cl)c(N4CCN(C5(C)COCC5O)CC4)cc3n2)c1C(F)F (single isomer, unassigned) [Ex-6.49, (3S,4S) or (3R,4R) 4-(4-(6-chloro-2-((5-(difluoromethyl)-1-methyl-1H-pyrazol-4-yl)amino)quinazolin-7-yl)piperazin-1-yl)-4-methyltetrahydrofuran-3-ol]	2.07
Cn1ncc(Nc2ncc3cc(Cl)c(N4CCN(C5(C)COC5)CC4)cc3n2)c1C(F)(F)F [Ex-4.15, 6-chloro-7-[4-(3-methyloxetan-3-yl)piperazin-1-yl]-N-[1-methyl-5-(trifluoromethyl)-1H-pyrazol-4-yl]quinazolin-2-amine]	19.3
CC1(N2CCN(c3cc4nc(Nc5cnn(C6CC6)c5Cl)ncc4cc3Cl)CC2)COCC1O (single isomer, unassigned) [Ex-1.46, (3S,4S or 3R,4R)-4-(4-{6-chloro-2-[5-chloro-1-cyclopropyl-1H-pyrazol-4-yl)amino]quinazolin-7-yl}piperazin-1-yl)-4-methyloxolane-3-ol]	0.625
Cc1cc2cnc(Nc3cnn(C45CC(C4)C5)c3Cl)nc2cc1N1CCN(C2COCC2O)CC1 (single isomer, unassigned) [Ex-5.13, (3S,4S) or (3R,4R) 4-(4-(2-((1-(bicyclo[1.1.1]pentan-1-yl)-5-chloro-1H-pyrazol-4-yl)amino)-6-methylquinazolin-7-yl)piperazin-1-yl)tetrahydrofuran-3-ol]	1.05

Structure (SMILES)	IC50 [nM]
Cc1c(Nc2ncc3cc(Cl)c(N4CCN(C5COCC5O)CC4)cc3n2)cnn1C(F)F (single isomer, unassigned) [Ex-13.7, (3S,4S) or (3R, 4R)-4-(4-(6-chloro-2-((1-(difluoromethyl)-5-methyl-1H-pyrazol-4-yl)amino)quinazolin-7-yl)piperazin-1-yl)tetrahydrofuran-3-ol]	31.6
Cn1ncc(Nc2ncc3cc(Cl)c(N4CCN(C5COCC5O)CC4)cc3n2)c1Cl (single isomer, unassigned) [Ex-6.7, (3S,4S) or (3R,4R) 4-(4-{6-chloro-2-[(5-chloro-1-methyl-1H-pyrazol-4-yl)amino]quinazolin-7-yl}piperazin-1-yl)oxolan-3-ol]	1.59
Cc1cc2cnc(Nc3cnn(C45CC(C4)C5)c3C)nc2cc1N1CCN(C2(C)CCOC2)CC1 (single isomer, unassigned) [Ex-2.4, (3S,4S or 3R,4R)-N-(1-(bicyclo[1.1.1]pentan-1-yl)-5-methyl-1H-pyrazol-4-yl)-6-methyl-7-(4-(3-methyltetrahydrofuran-3-yl)piperazin-1-yl)quinazolin-2-amine]	0.279
Cc1cc2cnc(Nc3cnn(C45CC(C4)C5)c3Cl)nc2cc1N1CCN(C2(C)COCC2O)CC1 (single isomer, unassigned) [Ex-13.5, (3S,4S) or (3R, 4R)-4-(4-(2-((1-(bicyclo[1.1.1]pentan-1-yl)-5-chloro-1H-pyrazol-4-yl)amino)-6-methylquinazolin-7-yl)piperazin-1-yl)-4-methyltetrahydrofuran-3-ol]	9.89
O[C@H]1COCC12CCN(c1cc3nc(Nc4cnn(C5CC5)c4Cl)ncc3cc1Cl)CC2 [Ex-3.2]	1.06
Cc1c(Nc2ncc3cc(Cl)c(N4CCN(C5(C)COCC5O)CC4)cc3n2)cnn1C1CC1(F)F (single isomer, unassigned) [Ex-6.42, (3S,4S) or (3R,4R) 4-[4-(6-chloro-2-{[1-(2,2-(R) or (S)difluorocyclopropyl)-5-methyl-1H-pyrazol-4-yl]amino}quinazolin-7-yl)piperazin-1-yl]-4-methyloxolan-3-ol]	21.4
Cc1cc2cnc(Nc3cnn(C4CC4)c3C)nc2cc1N1CCN(C2(C)COC2)CC1 [Ex-5.11, N-(1-cyclopropyl-5-methyl-1H-pyrazol-4-yl)-6-methyl-7-[4-(3-methyloxetan-3-yl)piperazin-1-yl]quinazolin-2-amine]	2.82
CC(C)(O)Cn1ncc(Nc2ncc3cc(Br)c(NCC4CC4)nc3n2)c1Cl [Ex-15.1, 1-[4-({6-Bromo-7-[(cyclopropylmethyl)amino]pyrido[2,3-d]pyrimidin-2-yl}amino)-5-chloro-1H-pyrazol-1-yl]-2-methylpropan-2-ol]	36.7
Cc1c(Nc2ncc3cc(Cl)c(N4CCN(C5COC5)[C@@H](C)C4)cc3n2)cnn1CCF [Ex-4.14, 6-chloro-N-[1-(2-fluoroethyl)-5-methyl-1H-pyrazol-4-yl]-7-[(3S)-3-methyl-4-(oxetan-3-yl)piperazin-1-yl]quinazolin-2-amine]	0.969
COCC12CC(n3cc(Nc4ncc5cc(Cl)c(N6CCC7(CCCO7)CC6)cc5n4)cn3)(C1)C2 [Ex-3.34, 6-chloro-N-{1-[3-(methoxymethyl)bicyclo[1.1.1]pentan-1-yl]-1H-pyrazol-4-yl}-7-(1-oxa-8-azaspiro [4.5]decan-8-yl)quinazolin-2-amine]	0.594
C[C@H]1COC(=O)N1c1ccc2cnc(Nc3cnn(CC(F)(F)F)c3)nc2c1 [Ex-7.21, (4S)-4-methyl-3-(2-{[1-(2,2,2-trifluoroethyl)-1H-pyrazol-4-yl]amino}quinazolin-7-yl)-1,3-oxazolidin-2-one]	0.625
CC1(N2CCN(c3cc4nc(Nc5cnn6c5CCC6)ncc4cc3Cl)CC2)COC1 [Ex-4.20, 6-chloro-N-(5,6-dihydro-4H-pyrrolo[1,2-b]pyrazol-3-yl)-7-[4-(3-methyloxetan-3-yl)piperazin-1-yl]quinazolin-2-amine]	2.59
CC1(N2CCN(c3cc4nc(Nc5cnn(C6CC6)c5Cl)ncc4cc3Cl)CC2)COC1 [Ex-4.17, 6-chloro-N-(5-chloro-1-cyclopropyl-1H-pyrazol-4-yl)-7-[4-(3-methyloxetan-3-yl)piperazin-1-yl]quinazolin-2-amine]	2.32
CC1(O)CCN(c2cc3nc(Nc4cnn(C5CC5)c4)ncc3cc2Cl)CC1 [Ex-3.9, 1-{6-chloro-2-[(1-cyclopropyl-1H-pyrazol-4-yl)amino]quinazolin-7-yl}-4-methylpiperidin-4-ol]	5.9
COC1CCC1n1ncc(Nc2ncc3cc(Cl)c(N4CCC(C)(O)CC4)cc3n2)c1C (single isomer, unassigned) [Ex-6.16, 1-(6-chloro-2-((1-((1R,2S) or (1S,2R)-2-methoxycyclobutyl)-5-methyl-1H-pyrazol-4-yl)amino)quinazolin-7-yl)-4-methylpiperidin-4-ol]	1.57
CO[C@H]1CCN(c2cc3nc(Nc4cnn(C5(C)CC5)c4Cl)ncc3cc2Cl)C1 [Ex-4.40, 6-chloro-N-[5-chloro-1-(1-methylcyclopropyl)-1H-pyrazol-4-yl]-7-[(3S)-3-methoxypyrrolidin-1-yl]quinazolin-2-amine]	15.2
